# According to ChEMBL document CHEMBL1128813, “Inhibitors of glucosidases with related structures and inverse specificity” (Bioorg Med Chem Lett, 1995):
# pKi: −log10 of the molar value.
# Legend:
# [1] = Inhibitory activity against Beta-glucosidase from Almond; set-up: species or system Prunus dulcis
# [2] = Inhibitory activity against Beta-glucosidase from Yeast; set-up: species or system Saccharomyces cerevisiae
# [3] = Inhibitory activity against Beta-glucosidase from E-coli; set-up: species or system Escherichia coli
smiles,measurement,setting,value
OCC1O/C(=N\O)C(O)C(O)C1O (centres undefined),pKi,[1],4.00
O=[N+]([O-])c1ccc(O/N=C2\OC(CO)C(O)C(O)C2O)c([N+](=O)[O-])c1 (centres undefined),pKi,[2],5.60
same,pKi,[3],3.92
same,pKi,[1],4.10
